Measurements: patent publication US10064837B1, “Abietic acid derivatives as anti-tumor agents” (KING SAUD UNIVERSITY, priority 2018, dated 2018)

Assays:
5α-reductase = test: In vivo 5α-reductase inhibitor biological assay; design: species or system male Sprague-Dawley rats; conditions: rats treated subcutaneously from postnatal third day until seven weeks; mean of three separate experiments
[1] = target: rat prostate testosterone 5α-reductase; test: In vitro 5α-reductase inhibitor enzymatic assay (rat ventral prostate homogenate, [3H]testosterone conversion); format: biochemical; conditions: pH 6.5, 37° C., 30 min, mean of three separate experiments
Protocol: A homogenate of the ventral prostate gland of male Sprague-Dawley rats was prepared, and testosterone 5α-reductase inhibition was measured using the methods previously reported in Iwai, A., et al., “Spectrophotometric Method for the Assay of Steroid 5α-reductase activity of rat liver and prostate microsomes”, Analytical Sciences 2013, 29: 455-459. Both the type 1 and the type 2 isozymes are present in the ventral prostate of the rat. In the assay, rat prostate extracts were used in a neutral pH buffer, and both isozymes were assayed.
The ventral prostate glands were excised and minced with a pair of scissors. The 20 w/v % homogenates were prepared with a glass-glass homogenizer in medium A (sucrose 0.32 M, dithiothreitol 0.1 mM, and sodium phosphate 20 mM, pH 6.5). The homogenate was filtered with surgical gauze and then centrifuged at 3000×g for 10 min. The pellets were suspended in medium A at a protein concentration of 20 mg/ml by triturating sequentially through an 18-gauge needle, and then a 20-gauge needle.
To 40 μl of the enzyme suspension, 10 μl of test sample in ethanol or ethanol alone and a mixture containing 0.525 ml of reaction solution consisting of dithiothreitol 1 mM, sodium phosphate 40 mM, pH 6.5, NADPH 5×10^−5 M, and [1,2,6,7^−3H]testosterone 2.2×10^−9 M were added. The assay mixture was incubated at 37° C. for 30 min. The reaction was stopped by the addition of 1 ml of ethyl acetate, and 50 μl of the upper phase was separated on a silica gel plate in the developing solvent system of ethyl acetate/cyclohexane, at a ratio of 1:1. The zones corresponding to the testosterone and 5α-dihydrotestosterone were cut into fragments. Each fragment was added to 5 ml of Aquasol-2 and counted with a liquid scintillation counter to determine ^3H radioactivity.
The inhibitory activity of each test sample was calculated as follows: Rate of enzyme reaction (R,%)=D/(T+D)×100 Inhibitory activity (%)=(1−Rsample/Rcontrol)×100 where D and T are the ^3H radioactivity recovered. The results are reported in Table 1, and reflected in FIG. 2.

[2] = system: prostate cancer cell line LNCaP; test: Anti-prostate cancer screening, anti-androgenic bioassay (AR transactivation, MMTV-luciferase) in LNCaP cells; format: cell-based, Human; conditions: 1 nM DHT, 24 h, mean of three separate experiments
Protocol: (§1) Human prostate cancer cell lines LNCaP and PC-3 were maintained in RPMI 1640 medium and DMEM medium, respectively. Both media were supplemented with penicillin (25 units/mL), streptomycin (25 μg/mL), and 10% fetal calf serum. For the androgen receptor transactivation assay, an androgen-dependent reporter gene transcription test was employed as the primary screening for potential anti-androgen identification. This assay was first performed in LNCaP cells, which express a clinically relevant mutant AR.
(§2) Cells were plated in 24-well tissue culture dishes for 24 hours (PC-3 cells) or 48 hours (LNCaP cells) prior to transfection. Subsequently, LNCaP cells were transfected with a reporter gene, MMTV-luciferase, which contains MMTV-LTR promoter and androgen receptor binding element, and PRL-SV40, which served as an internal control for transfection efficiency. PC-3 cells were transfected with a wild type AR expression plasmid, pSG5AR, in addition to the aforementioned MMTV-luciferase reporter gene and PRL-SV40 internal control. SuperFect (Qiagen, Chatsworth, Calif.) was employed as the transfection reagent following manufacturer's recommendations.
(§3) At the end of a 5-hour transfection period, the medium was changed to DMEM or RPMI 1640 medium, supplemented with 10% charcoal dextran-stripped (that is, androgen-depleted) serum. After 24 h, the cells were treated with 1 nM of DHT and/or test compounds at the designated concentration for another 24 h. The cells were harvested for luciferase activity assay using the Dual Luciferase Assay System (Promega, Madison, Wis.).
The derived data were expressed as relative luciferase activity normalized to the internal luciferase control. Cells cultured in medium containing DHT (androgen), as a positive control, induced a marked reporter gene expression. […] The results are reported in Table 3, and reflected in FIGS. 4 and 5.

[3] = system: prostate cancer cell line PC3; test: Anti-prostate cancer screening, anti-androgenic bioassay (wild type AR transactivation, MMTV-luciferase) in PC-3 cells; format: cell-based, Human; conditions: PC-3 cells transfected with wild type AR, 1 nM DHT, 24 h, mean of three separate experiments
Protocol: as §1
Wild type AR transactivation assay was performed in PC-3 host cells, which lack an endogenous, functional AR.
as §2, §3
The derived data were expressed as relative luciferase activity normalized to the internal luciferase control. […] The results are reported in Table 3, and reflected in FIGS. 4 and 5.

Row | Compound | IC50 [1] [nM] | IC50 ([2]; Homo sapiens) [nM] | IC50 ([3]; Homo sapiens) [nM] | melting point [°C] | IC50 [2] [nM] | IC50 [3] [nM] | ED50 of the 5α-reductase inhibitors activities (5α-reductase) [nM]
1 | CC(C)C1=CC2=CC[C@@H]3[C@](C)(CCC[C@@]3(C)C(=O)O)[C@H]2CC1 [Abietic acid] | 56000 ± 22000 | – | – | – | – | – | 8800 ± 87
2 | CC(C)(C#N)c1cc(Cn2cncn2)cc(C(C)(C)C#N)c1 [Anastrozole, anastrozole, reference compound] | 11230 ± 23 | – | – | – | – | – | 1090 ± 3.4
3 | CC(C)C1=CC2=CCC3C4(C)CC(CC3(C)C2CC1)OC4=O (centres unmarked) [Compound 2, Abieta-7, 13-dien-18-oic acid (18→2) lactone] | 0.34 ± 0.06 | 4.22 ± 0.03 | 45.7 ± 1.09 | 227 to 229 | – | – | 64 ± 0.76
4 | CC(C)C1=CC2=CC3OC(=O)C4(C)CCCC(C)(C2CC1)C34 (centres unmarked) [Compound 3, Abieta-7,13-dien-18-oic acid (18→6) lactone] | 0.91 ± 0.07 | 9.08 ± 0.08 | 112 ± 3.7 | 301 to 303 | – | – | 90 ± 0.88
5 | CC(C)C1=CC2=CCC3C(C)(C(=O)Oc4ccccc4)CC(O)CC3(C)C2CC1 (centres unmarked) [Compound 4a, Phenyl-2-hydroxy-abieta-7,13-dien-18-oate] | 0.22 ± 0.03 | 3.24 ± 0.04 | 18.2 ± 11 | – | – | – | 44 ± 0.65
6 | CC(C)C1=CC2=CCC3C(C)(C(=O)Sc4ccccc4)CC(O)CC3(C)C2CC1 (centres unmarked) [Compound 4b, Phenyl-2-hydroxy-abieta-7,13-dien-18-thioate] | 0.29 ± 0.01 | – | – | – | 3.58 ± 0.02 | 26.4 ± 1.8 | 45 ± 0.57
7 | CC(C)C1=CC2=CCC3C(C)(C(=O)Nc4ccccc4)CC(O)CC3(C)C2CC1 (centres unmarked) [Compound 4c, Phenyl-2-hydroxy-abieta-7,13-dien-18-carboxamide] | 0.19 ± 0.02 | 2.33 ± 0.05 | 11.14 ± 0.09 | – | – | – | 38 ± 0.45
8 | CC(C)(C)NC(=O)[C@H]1CC[C@H]2[C@@H]3CC[C@H]4NC(=O)C=C[C@]4(C)[C@H]3CC[C@]12C [Finasteride, finasteride, reference compound] | 60 ± 1.2 | > 100000 | – | – | – | – | 170 ± 7.9

More lines, main results first:

Row | IC50 [1] [nM] | IC50 ([2]; Homo sapiens) [nM] | IC50 ([3]; Homo sapiens) [nM] | melting point [°C] | IC50 [2] [nM] | IC50 [3] [nM] | Compound | ED50 of the 5α-reductase inhibitors activities (5α-reductase) [nM]
9 | 0.74 ± 0.06 | 6.21 ± 0.04 | 71.2 ± 3.6 | – | – | – | CC(C)C1=CC2=CC(O)C3C(C)(C(=O)Oc4ccccc4)CCCC3(C)C2CC1 (centres unmarked) [Compound 5a, Phenyl-6-hydroxy-abieta-7,13-dien-18-oate] | 76 ± 0.89
10 | 0.88 ± 0.07 | 7.8 ± 0.09 | 83.5 ± 2.3 | – | – | – | CC(C)C1=CC2=CC(O)C3C(C)(C(=O)Sc4ccccc4)CCCC3(C)C2CC1 (centres unmarked) [Compound 5b, Phenyl-6-hydroxy-abieta-7,13-dien-18-thioate] | 88 ± 0.89
11 | 0.68 ± 0.08 | 5.78 ± 0.03 | 66.2 ± 2.3 | – | – | – | CC(C)C1=CC2=CC(O)C3C(C)(C(=O)Nc4ccccc4)CCCC3(C)C2CC1 (centres unmarked) [Compound 5c, Phenyl-6-hydroxy-abieta-7,13-dien-18-carboxamide] | 71 ± 0.74
